The source of these data is US8338565B2, “Macrocyclic compounds for inhibition of tumor necrosis factor alpha” (Ensemble Therapeutics Corporation, priority 2008, dated 2012).

The structures appear in SMILES notation. Numbered stars: 1 amine (or outer) side, 2 acyl side, 3 side chain; on linkers, the order of the positions; unused ones are H or OH. Bridge positions count the residues as written; N and C are the ends. Square brackets hold non-standard residues; d marks the D form. Peptide text beside a SMILES is read from it. Phe(4-CF3) = N[C@@H](Cc1ccc(C(F)(F)F)cc1)C(=O)O; Phe(4-COOH) = N[C@@H](Cc1ccc(C(=O)O)cc1)C(=O)O; dPhe(2-CF3) = N[C@H](Cc1ccccc1C(F)(F)F)C(=O)O; Bip = N[C@@H](Cc1ccc(-c2ccccc2)cc1)C(=O)O; dBip = N[C@H](Cc1ccc(-c2ccccc2)cc1)C(=O)O; dPhe(4-NH2) = Nc1ccc(C[C@@H](N)C(=O)O)cc1; Phe(4-NH2) = Nc1ccc(C[C@H](N)C(=O)O)cc1; dAla(2-furyl) = N[C@H](Cc1ccco1)C(=O)O; Maleoyl = O=C(/C=C\C(=O)[*:2])[*:1]; d(hPhe) = N[C@H](CCc1ccccc1)C(=O)O; 2Thi = N[C@@H](Cc1cccs1)C(=O)O; Cha = N[C@@H](CC1CCCCC1)C(=O)O; d2Thi = N[C@H](Cc1cccs1)C(=O)O; Suc = O=C(CCC(=O)[*:2])[*:1]; NMeA = CN[C@@H](C)C(=O)O; Dap = NC[C@H](N)C(=O)O

The target in one assay is T1, TNFα / TNFα receptor (TNFα R1/Fc) (Homo sapiens, UniProt P01375).
T1 construct: purchased R&D Systems
T1 sequence (P01375 77-233 limits assumed, species assumed): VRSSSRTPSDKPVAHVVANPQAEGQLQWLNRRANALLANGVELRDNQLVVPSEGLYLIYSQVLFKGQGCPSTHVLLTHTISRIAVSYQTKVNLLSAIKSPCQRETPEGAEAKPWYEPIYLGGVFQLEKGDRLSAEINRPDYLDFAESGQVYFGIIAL
As to the kind of experiment: Inhibition of binding of TNFα to the TNFα receptor (plate ELISA competition). Particulars: Activity (IC50, inhibition of TNFα binding to TNFα R1/Fc), Table 2. How it is done: The compounds listed in Table 2 below were assayed for ability to inhibit binding of TNFα to the TNFα receptor (TNFα R1/Fc). The assays were performed as described in the following procedure: TNFα (R&D Systems) was coated on high binding plate wells (Corning 96-well) at a single uniform concentration of 15 nM, 100 μL/well in PBS. The coating proceeded for 30 minutes at 37° C. then 10 minutes at 4° C. The coated plate was washed with PBST, then 250 μL/well of blocking solution (PBST 0.1% BSA, bovine serum albumin) was added and incubation proceeded for 30-45 minutes at room temperature with agitation. The solution phase competition proceeded separately with the dilutions of test compound in PBST (phosphate buffered saline with Tween 20), 2% DMSO in a polypropylene plate (Corning 96-well storage plate) with a single concentration, 8.33 nM of the high affinity receptor for TNFα (R&D Systems). This solution phase incubation proceeded for 30 minutes at room temperature with agitation and was then added to the washed TNFα coated assay plate, 100 μL/well, and was incubated for a further 30 minutes at room temperature with agitation. The assay plate was washed and 100 μL goat anti-human IgG (Fc) HRP labeled antibody in PBST, 13 pM, (KPL Cat#04-10-2) was added to each well. This incubation proceeded for 25-30 minutes at room temperature with agitation. Following this incubation step, the plate was washed and a 100 μL TMB solution (SUREBLUE™ TMB Peroxidase substrate, KPL) was added per well and allowed to stand approximately 3-5 minutes for development. The TMB reaction was stopped with the addition of 0.5N HCl and then the plate was read for absorbance at 450 nm.
A general note: ELISA stands for enzyme-linked immunosorbent assay.
Regarding `O=C1COc2ccc(cc2)CC(C(=O)O)NC(=O)C(Cc2ccccc2)NC(=O)C(Cc2ccc([N+](=O)[O-])cc2)NC(=O)C(Cc2cccs2)N1` (centres unmarked) [Compound 358], the IC50 was more than 100 µM. Still for that read-out and setting: in the case of `O=C1COc2ccc(cc2)C[C@@H](C(=O)N[C@@H](Cc2ccccc2)C(=O)O)NC(=O)[C@H](CCc2ccccc2)NC(=O)[C@@H](Cc2ccc(-c3ccccc3)cc2)NC(=O)[C@H](Cc2cccs2)N1` [Compound 481] it was less than 10 µM.

The same assay, now with this note: Table 2; read-out: Activity (IC50, inhibition of TNFα binding to TNFα R1/Fc).
For `O=C(O)CCCNC(=O)[C@@H]1Cc2ccc(cc2)OCC(=O)N[C@@H](Cc2ccncc2)C(=O)N[C@H](Cc2ccc(-c3ccccc3)cc2)C(=O)N[C@@H](Cc2c[nH]c3ccccc23)C(=O)N1` [Compound 722], the IC50 was less than 10 µM. Take `O=C(O)[C@@H]1Cc2ccc(cc2)NC(=O)[C@H](O)[C@@H](O)C(=O)N[C@H](Cc2cccs2)C(=O)N[C@@H](Cc2ccc(-c3ccccc3)cc2)C(=O)N[C@@H](Cc2ccccc2)C(=O)N1` [Compound 268]: the IC50 was more than 100 µM. For `O=C1CCC(=O)N[C@@H](Cc2cccs2)C(=O)N[C@H](Cc2ccc(-c3ccccc3)cc2)C(=O)N[C@H](Cc2ccccc2)C(=O)N[C@H](C(=O)O)Cc2ccc(cc2)N1` [Compound 494] ([2Thi][dBip][dF][Phe(4-NH2)]-OH; linker N-4 via Suc), the IC50 was more than 100 µM. On the same count and under the same terms, in the case of `O=C1CCC(=O)N[C@H](Cc2ccccc2)C(=O)N[C@@H](Cc2ccc(-c3ccccc3)cc2)C(=O)N[C@H](CCc2ccccc2)C(=O)N[C@H](C(=O)N[C@@H](Cc2ccccc2)C(=O)O)Cc2ccc(cc2)N1` [Compound 456] ([dF][Bip][d(hPhe)][Phe(4-NH2)]F-OH; linker N-4 via Suc) it was more than 100 µM; in that of `N[C@H]1CNC(=O)c2ccc(cc2)C[C@@H](C(=O)O)NC(=O)[C@@H](Cc2ccccc2)NC(=O)[C@H](Cc2ccc(-c3ccccc3)cc2)NC(=O)[C@@H](CCc2ccccc2)NC1=O` [Compound 265] (H-[Dap][d(hPhe)][Bip][dF][Phe(4-COOH)]-OH; lactam 1-5), more than 100 µM.

For the molecule `O=C1CCC(=O)N[C@H](Cc2cccs2)C(=O)N[C@@H](Cc2ccc(-c3ccccc3)cc2)C(=O)N[C@H](Cc2ccccc2)C(=O)N[C@H](C(=O)N2CCC[C@@H]2C(=O)O)Cc2ccc(cc2)N1` [Compound 200] ([d2Thi][Bip][dF][Phe(4-NH2)][dP]-OH; linker N-4 via Suc), the IC50 was in the range of 30 to 100 µM. On the same count and under the same terms, for `O=C1CNC(=O)c2ccc(cc2)C[C@@H](C(=O)O)NC(=O)[C@@H](Cc2ccccc2)NC(=O)[C@H](Cc2ccc(-c3ccccc3)cc2)NC(=O)[C@@H](CCc2ccccc2)N1` [Compound 247] (G[d(hPhe)][Bip][dF][Phe(4-COOH)]-OH; lactam N-5) the value was more than 100 µM; for `COc1cccc(C[C@H]2NC(=O)[C@H](O)[C@@H](O)C(=O)Nc3ccc(cc3)C[C@@H](C(=O)O)NC(=O)[C@@H](Cc3ccccc3)NC(=O)[C@H](Cc3ccc(-c4ccccc4)cc3)NC2=O)c1` [Compound 317], 10 to 30 µM; for `O=C1COc2ccc(cc2)C[C@H](C(=O)N[C@H](CCc2ccccc2)C(=O)O)NC(=O)[C@H](Cc2ccccc2F)NC(=O)[C@@H](Cc2ccc(-c3ccccc3)cc2)NC(=O)[C@H](Cc2ccncc2)N1` [Compound 736], less than 10 µM. Take `O=C(OCc1ccccc1)c1ccc(-c2ccc(C[C@@H]3NC(=O)[C@@H](Cc4cccs4)NC(=O)[C@H](O)[C@@H](O)C(=O)Nc4ccc(cc4)C[C@@H](C(=O)O)NC(=O)[C@@H](Cc4ccccc4)NC3=O)cc2)cc1` [Compound 335]: the IC50 lay in the range of 10 to 30 µM. Same read-out and setting: in the case of `C[C@@H](C(=O)O)N(C)C(=O)[C@@H]1Cc2ccc(cc2)NC(=O)CCC(=O)N[C@H](Cc2cccs2)C(=O)N[C@@H](Cc2ccc(-c3ccccc3)cc2)C(=O)N[C@H](Cc2ccccc2)C(=O)N1` [Compound 30] ([d2Thi][Bip][dF][Phe(4-NH2)][NMeA]-OH; linker N-4 via Suc) it was 10 to 30 µM; in that of `O=C1COc2ccc(cc2)C[C@@H](C(=O)O)NC(=O)[C@H](Cc2ccccc2)NC(=O)[C@H](Cc2ccc(Br)cc2)NC(=O)[C@H](Cc2cccs2)N1` [Compound 359], more than 100 µM. Same read-out and setting: in the case of `O=C1COc2ccc(cc2)C[C@@H](C(=O)O)NC(=O)[C@H](CCc2ccccc2)NC(=O)[C@@H](Cc2ccc(-c3ccccc3)cc2)NC(=O)[C@H](Cc2ccccc2F)N1` [Compound 677] it was less than 10 µM; in that of `O=C1CCC(=O)N[C@H](Cc2cccs2)C(=O)N[C@@H](Cc2ccc(-c3ccccc3)cc2)C(=O)N[C@H](Cc2ccco2)C(=O)N[C@H](C(=O)O)Cc2ccc(cc2)N1` [Compound 48] ([d2Thi][Bip][dAla(2-furyl)][Phe(4-NH2)]-OH; linker N-4 via Suc), 10 to 30 µM. Take `O=C1COc2ccc(cc2)C[C@@H](C(=O)O)NC(=O)[C@H](Cc2ccccc2C(F)(F)F)NC(=O)[C@@H](Cc2ccc(-c3ccccc3)cc2)NC(=O)[C@H](Cc2ccncc2)N1` [Compound 649]: the IC50 was less than 10 µM. `O=C1CCC(=O)N[C@H](Cc2cccs2)C(=O)N[C@@H](Cc2ccc(O)cc2)C(=O)N[C@H](Cc2ccccc2)C(=O)N[C@H](C(=O)O)Cc2ccc(cc2)N1` [Compound 87] ([d2Thi]Y[dF][Phe(4-NH2)]-OH; linker N-4 via Suc): the IC50 is more than 100 µM. The same measure, in the same setting: for `O=C(O)CNC(=O)[C@@H]1Cc2ccc(cc2)OCC(=O)N[C@@H](Cc2cccs2)C(=O)N[C@@H](Cc2ccc(-c3ccccc3)cc2)C(=O)N[C@@H](Cc2ccccc2)C(=O)N1` [Compound 329] the value was less than 10 µM. On the same count and under the same terms, in the case of `O=C1COc2ccc(cc2)C[C@@H](C(=O)O)NC(=O)[C@H](CCc2ccccc2)NC(=O)[C@@H](Cc2ccc(-c3ccccc3)cc2)NC(=O)[C@H](Cc2cccnc2)N1` [Compound 662] it was less than 10 µM. The same measure, in the same setting: for `O=C1CCC(=O)N[C@H](CCc2ccccc2)C(=O)N[C@@H](Cc2ccc(C(F)(F)F)cc2)C(=O)N[C@H](Cc2ccccc2)C(=O)N[C@@H](C(=O)N[C@H](Cc2ccccc2)C(=O)O)Cc2ccc(cc2)N1` [Compound 13] ([d(hPhe)][Phe(4-CF3)][dF][dPhe(4-NH2)][dF]-OH; linker N-4 via Suc) the value was more than 100 µM; for `O=C1COc2ccc(cc2)C[C@@H](C(=O)O)NC(=O)[C@H](CCc2ccccc2)NC(=O)[C@@H](Cc2ccc(-c3ccccc3)cc2)NC(=O)[C@H](Cc2ccc(-c3ccc(F)cc3)cc2)N1` [Compound 698], less than 10 µM. In the case of `O=C1CCC(=O)N[C@H](Cc2cccs2)C(=O)N[C@@H](Cc2ccc(-c3ccccc3)cc2)C(=O)N[C@H](Cc2ccccc2C(F)(F)F)C(=O)N[C@H](C(=O)O)Cc2ccc(cc2)N1` [Compound 77] ([d2Thi][Bip][dPhe(2-CF3)][Phe(4-NH2)]-OH; linker N-4 via Suc), the IC50 was 30 to 100 µM. The same measure, in the same setting: in the case of `O=C1COc2ccc(cc2)C[C@@H](C(=O)O)NC(=O)[C@@H](Cc2ccccc2)NC(=O)[C@H](Cc2ccc(-c3ccccc3)cc2)NC(=O)[C@@H](Cc2cccs2)N1` [Compound 8] it was 30 to 100 µM; in that of `O=C(O)[C@@H]1Cc2ccc(cc2)NC(=O)[C@H](O)[C@@H](O)C(=O)N[C@H](Cc2cccs2)C(=O)N[C@H](Cc2ccc(-c3ccccc3)cc2)C(=O)N[C@H](Cc2ccccc2)C(=O)N1` [Compound 269], more than 100 µM; in that of `O=C1COc2ccc(cc2)C[C@@H](C(=O)O)NC(=O)[C@H](CCc2ccccc2)NC(=O)[C@@H](Cc2ccc(-c3ccncc3)cc2)NC(=O)[C@H](Cc2ccncc2)N1` [Compound 666], 10 to 30 µM.

With `O=C(O)CC[C@H]1NC(=O)[C@H](Cc2ccc(-c3ccccc3)cc2)NC(=O)[C@@H](Cc2cccs2)NC(=O)CCC(=O)Nc2ccc(cc2)C[C@@H](C(=O)O)NC1=O` [Compound 69] ([d2Thi][Bip][dE][Phe(4-NH2)]-OH; linker N-4 via Suc), the IC50 is more than 100 µM. Same read-out and setting: for `O=C1CCC(=O)N[C@H](Cc2cccs2)C(=O)N[C@H](Cc2ccc(-c3ccccc3)cc2)C(=O)N[C@@H](Cc2ccccc2)C(=O)N[C@@H](C(=O)O)Cc2ccc(cc2)N1` [Compound 503] ([d2Thi][dBip]F[dPhe(4-NH2)]-OH; linker N-4 via Suc) the value was more than 100 µM; for `COC(=O)[C@@H]1Cc2ccc(cc2)OCC(=O)N[C@@H](Cc2cccs2)C(=O)N[C@H](Cc2ccc(-c3ccccc3)cc2)C(=O)N[C@@H](CCc2ccccc2)C(=O)N1` [Compound 615], more than 100 µM; for `O=C1/C=C\C(=O)N[C@@H](CC2CCCCC2)C(=O)N[C@@H](Cc2ccc(-c3ccccc3)cc2)C(=O)N[C@H](CCc2ccccc2)C(=O)N[C@H](C(=O)O)Cc2ccc(cc2)N1` [Compound 197] ([Cha][Bip][d(hPhe)][Phe(4-NH2)]-OH; linker N-4 via Maleoyl), less than 10 µM.

Regarding `O=C1COc2ccc(cc2)C[C@@H](C(=O)O)NC(=O)[C@H](CCc2ccccc2)NC(=O)[C@@H](Cc2ccc(-c3ccccc3)cc2)NC(=O)[C@H](Cc2ccc(O)cc2)N1` [Compound 686], the IC50 is less than 10 µM.

As to `O=C(O)C[C@@H]1NC(=O)[C@H](Cc2ccc(-c3ccccc3)cc2)NC(=O)[C@@H](Cc2cccs2)NC(=O)CCC(=O)Nc2ccc(cc2)C[C@@H](C(=O)O)NC1=O` [Compound 64] ([d2Thi][Bip]D[Phe(4-NH2)]-OH; linker N-4 via Suc), the IC50 is more than 100 µM.
